Results: patent US20240398767A1, “INHIBITORS OF THE MTDH-SND1 PROTEIN COMPLEX FOR CANCER THERAPY” (The Trustees of Princeton University, priority 2021, published 2024)

Assays:
MTDH-SND1 interaction = molecular target: T1, MTDH-SND1 interaction (Homo sapiens, UniProt Q7KZF4); experiment: Co-immunoprecipitation (Co-IP) in SCP28 lysates with anti-MTDH antibody, Western blot for SND1; type: binding; conditions: 500 μM, SCP28 lysate
T1 construct: endogenous in cells; host or cells: SCP28 cells (lysate)
T1 sequence (Q7KZF4 2-910 limits assumed): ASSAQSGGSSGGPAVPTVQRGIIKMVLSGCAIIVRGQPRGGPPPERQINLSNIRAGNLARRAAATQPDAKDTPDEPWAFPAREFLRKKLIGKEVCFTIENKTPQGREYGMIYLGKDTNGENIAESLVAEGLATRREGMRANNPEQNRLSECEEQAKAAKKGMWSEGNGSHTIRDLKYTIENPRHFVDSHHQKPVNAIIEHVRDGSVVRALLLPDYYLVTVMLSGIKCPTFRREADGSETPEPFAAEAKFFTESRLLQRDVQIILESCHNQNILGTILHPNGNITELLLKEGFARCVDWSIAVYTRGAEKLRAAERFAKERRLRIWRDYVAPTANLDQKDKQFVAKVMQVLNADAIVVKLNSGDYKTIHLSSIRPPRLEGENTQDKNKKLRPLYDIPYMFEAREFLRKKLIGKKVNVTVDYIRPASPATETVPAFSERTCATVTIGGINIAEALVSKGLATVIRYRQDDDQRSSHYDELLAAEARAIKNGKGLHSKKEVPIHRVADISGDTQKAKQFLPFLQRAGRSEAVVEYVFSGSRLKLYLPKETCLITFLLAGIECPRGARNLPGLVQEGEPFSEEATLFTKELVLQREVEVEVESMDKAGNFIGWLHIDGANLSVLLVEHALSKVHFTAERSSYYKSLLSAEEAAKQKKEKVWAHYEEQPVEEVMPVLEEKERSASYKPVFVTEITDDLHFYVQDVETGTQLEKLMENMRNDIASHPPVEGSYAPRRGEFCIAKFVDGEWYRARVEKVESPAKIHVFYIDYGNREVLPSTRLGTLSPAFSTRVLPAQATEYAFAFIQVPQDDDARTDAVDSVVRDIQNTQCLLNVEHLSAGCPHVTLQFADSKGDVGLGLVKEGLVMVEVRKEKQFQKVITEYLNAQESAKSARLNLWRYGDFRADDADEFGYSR
Experimental: FIG. 3F, SCP28 cells grown confluent in each 10-cm dish were lysed with 1 ml IP lysis buffer. 500 μM of the compounds were added into each 1 ml of the samples and IP lysis buffer with 2 μg of anti-MTDH antibody. Western blot was then performed to detect SND1 that binds to MTDH.
FIG. 10E, Schematic diagram of Co-IP based confirmation of MTDH-SND1 inhibitory compounds (left). SCP28 cells were lysed for IP assay.2 μg of MTDH antibody together with 500 μM of MTDH wild type (Pep-WT) or mutant (Pep-MT) peptides were added into each 1 ml of samples. Red star indicates wild type MTDH peptide competing off SND1 that binds to MTDH.
Co-immunoprecipitation assay (Co-IP), which is a commonly used standard test to determine protein-protein interaction, was next employed to validate the candidates. Lysates of breast cancer cell line SCP28, a single cell-derived subline from the MDA-MB-231 TNBC cell line^25, was immunoprecipitated with anti-MTDH antibody alone or together with inhibitors (FIG. 3F and FIG. 10E). The samples were then incubated with Protein-A/G beads to pull down MTDH, followed by Western blot analysis to detect SND1. […] Using multiple screening and validation platforms, two classes of compounds, C26s and C32s, were obtained that inhibit MTDH-SND1 interaction.
Immunoprecipitation (IP) and western blotting (WB) analysis. For IP experiment, samples were prepared as previously described^32. 100 μl of the supernatant was transferred to a new tube as input, and the rest was incubated with 2 μg of IgG, anti-Myc (Santa Cruz, SC-40), or anti-MTDH (ThermoFisher, 40-6500) (as indicated in each experiment) overnight at 4° C. (small chemical compounds may be added at this step as indicated in each experiment). The rest standard IP procedures were performed as previously noted^32. […]

4TO7 lung metastases = experiment: Established 4TO7 lung macrometastases; type: in vivo, Balb/C females
Experimental: For FIGS. 7A-7D, 2 k 4TO7 cells were injected into Balb/C females. 2 weeks after the injections, the mice were randomized based on lung metastasis that indicated by BLI, and were divided into four groups followed by vehicle, paclitaxel (Pac), and C26-A6 treatment alone or in combination. For Pac, the mice were treated with 20 mg/kg of Pac twice per week for the first two week and then once per week after that, For C26-A6, the mice were treated with 15 mg/kg of C26-A6 5 days per week. n=6 mice per group. Data represent mean±SEM.
FIG. 7A, Representative mice right before the treatment (week 2) and at week 10 are shown.
FIG. 7B, The BLI signal was quantified at week 2. Significance determined by one-way ANOVA analysis with Dunnett's test for multiple comparisons.
FIG. 7C, The metastasis progression of each individual is shown.
FIG. 7D, Survival rate in each group was analyzed. Significance determined by two-sided Log-rank test.
Lastly, to mimic the clinical scenario of adjuvant chemotherapy following surgical removal of the primary tumors, SCP28 mammary tumors were removed when they reached 5 mm in diameter, the mice were then randomly separated into four groups and subjected to the different treatment regimens as above. […] The mice were then treated with vehicle or paclitaxel and C26-A6 alone or in combination, and the metastasis progression was monitored by BLL.

[1] = system: SCP28 tumors with MTDH or SND1 KD; experiment: SCP28 tumor models with MTDH or SND1 KD; type: in vivo, NSG females
Experimental: FIG. 17A, Indicated cells were injected into NSG females orthotopically and followed by vehicle or C26-A6 treatment after 2 weeks. Tumor volumes were measured 8 weeks after injection. Vehicle, n=6 mice; C26-A6, n=6 mice.
FIG. 17B, Spontaneous lung metastasis of the mice in FIG. 17A were assessed by BLI (right). Size bar, 5 mm. Vehicle, n=5 lungs; C26-A6, n=6 lungs.
FIG. 17C, The SND1 and MTDH expression of the cells used in FIG. 17A was evaluated.
Next, to further validate that the anti-tumor effect of C26-A6 depends on its on-target effects by disrupting MTDH-SND1 complex, PyMT; UBC-Cre^ERT+/−;Mtdh^fl/fl tumor cells with Mtdh depletion or with endogenous Snd1 KD were employed for the similar assay as in FIG. 5-1a. […] Likewise, MTDH or SND1 KD abolished the C26-A6 treatment-induced primary tumor inhibition or metastasis reduction in SCP28 tumor models (Extended Data FIG. 10-1a-c).

Compound	MTDH-SND1 interaction (SND1 that binds to MTDH, Co-IP) (MTDH-SND1 interaction)	metastatic growth (BLI) (4TO7 lung metastases; Pac 20 mg/kg, C26-A6 15 mg/kg 5 days per week)	metastasis shrinkage (4TO7 lung metastases; six mice per group)	C26-A6 treatment-induced primary tumor inhibition or metastasis reduction [1]
COc1ccc(Cl)cc1S(=O)(=O)Nc1cccn2ncnc12 [Analog C26-A2]	strongest inhibitory effects	–	–	–
COc1ccc(Cl)cc1S(=O)(=O)Nc1cccn2nc(C)nc12 [Analog C26-A6]	strongest inhibitory effects	slowed down metastatic growth	did not result in metastasis shrinkage	abolished
